In patent publication US20240207337A1, “MYCELIAL CULTURE OF Irpex lacteus AND COMPOSITION COMPRISING SAME AS ACTIVE INGREDIENT FOR PREVENTION AND TREATMENT OF DIABETES MEILLITUS” (LONGRUNN MEDICAL FOOD PTE. LTD., priority 2021, published 2024):

Legend:
Type in all cases: in vivo
db/db mice [1] = assay: Blood glucose level after repeated oral administration for three weeks in db/db mice; settings: G5: Diabex 400 mg/kg/day oral
Experimental: In this experiment, the test material lyophilizate of a mycelial culture of Irpex lacteus KACC 83046BP was orally administered to the db/db mice, which are an animal model of diabetes, for three weeks and examined for hypoglycemic effect. This test was conducted in the Local Food Institute of Gimcheon University.
For use in tests, sterile water for injection (excipient) was used as a negative control while Diabex tablet ([…], 500 mg) commercially available from Dai Han Pharm. Co., Ltd. (Kyeonggi-do) was used as a positive control. A test substance was divided into three groups: high-, medium-, and low-dose groups, which were prepared in suspension by adding the same amount of the test substance to different amounts of the sterile water for injection.
Blood glucose levels were measured once a week for three weeks during the experiment. In order to objectively measure blood glucose levels, all experimental animals were blocked from eating feed 6 hours before blood glucose measurement on the day of blood glucose measurement. Blood glucose levels were measured using a portable blood glucose meter (Accu-Check Performa/USA).

db/db mice [2] = assay: Histopathological examination of pancreas (H&E) in db/db mice; settings: G5: Diabex 400 mg/kg/day oral, three weeks
Experimental: All the experimental animals were anesthetized by inhalation with CO2 and autopsied by laparotomy, and blood was collected from the posterior vena cava. After blood collection, the animals were killed by excision of the abdominal aorta and posterior vena cava and exsanguination. For histopathological examination, hematoxylin & eosin (H&E) staining was conducted to measure numbers and diameters of pancreatic islets and proportions of zymogen granules per unit area of exocrine pancreatic portions.

db/db mice [3] = assay: Blood insulin and c-peptide measurement (ELISA) in db/db mice; settings: three weeks
Excerpt: C-peptide is a substance that is secreted when proinsulin, a precursor of insulin, is degraded and released. The peptide, although lacking bioactivity, accounts for the secretion state of insulin. In addition, with a long half-life, C-peptide is used as an index to evaluate insulin secretion. The sera stored in separation were quantitatively assayed for insulin and c-peptide, using an ELISA kit (Shibayagi, AKRIN-011T and AKRCP-031).

db/db mice [4] = assay: Oral glucose tolerance test (OGTT) in db/db mice; settings: G5: Diabex 400 mg/kg oral
Experimental: (1) The OGTT measures the body's ability to use glucose.
(2) After 6 days of acclimatization, OGTT test animals were fasted for 16 hours before OGTT (water provided).
(3) Blood glucose was measured 30 minutes before administration of the test substance and once again 30 minutes later, that is, just before glucose administration.
(4) At 30, 60, 90, 120, and 240 min after administration of oral glucose at a dose of 2 g/10 mL/kg, blood was taken from tail veins and measured for glucose levels using a blood glucose meter (Accu-Check Performa).

db/db mice [5] = assay: Hemato-biochemical examination in db/db mice; settings: G5: Diabex 400 mg/kg/day oral, three weeks
Experimental: Of the blood collected for clinical pathology on the day of the end of the experiment, about 200 μL was used for analyzing glycated hemoglobin (HbA1c) while the remainder was left for 30 min or longer at room temperature in a vacutainer tube containing a clot activator and then centrifuged at 3000 rpm for 10 min. The serum obtained by centrifugation was transferred to a new tube and subjected to hemato-biochemical examination.
Using a hemato-biochemical analyzer, whole blood and sera which had been stored separately were subjected to hemato-biological examination for total cholesterol (TCHO), aspartate aminotransferase (AST), high-density lipoprotein (HDL), low-density lipoprotein (LDL), alanine aminotransferase (ALT), and glycated hemoglobin (HbA1c).

metformin phosphate [Diabex]
Blood glucose level (db/db mice [1]; Day 1 (first day of administration)): 365 ± 24 mg/dL | Blood glucose level (db/db mice [1]; Week 1): 371 ± 12 mg/dL | Blood glucose level (db/db mice [1]; Week 2): 452 ± 13 mg/dL | Blood glucose level (db/db mice [1]; Week 3): 436 ± 11 mg/dL | Diameter of islet (db/db mice [2]): 126.25 ± 5.3 μm | No. of pancreatic Islets (db/db mice [2]): 6.25 ± 0.1 islets/cm^2 | Zymogen granules (db/db mice [2]): 41.39 ± 0.7 %/mm^2 of exocrine pancreas | Blood insulin compared to the negative control (G1) (db/db mice [3]; G5 (Diabex 400 mg/kg) oral): significant decrease | Blood C-peptide level (db/db mice [3]; G5: Diabex 400 mg/kg/day oral): 459.7 ± 82.3 pg/mL | Blood insulin level (db/db mice [3]; G5: Diabex 400 mg/kg/day oral): 1.96 ± 0.39 ng/mL | Blood glucose level (OGTT) (db/db mice [4]; 0 min (just before glucose 2 g/kg)): 385 ± 33 mg/dL | Blood glucose level (OGTT) (db/db mice [4]; 30 min after glucose): 421 ± 29 mg/dL | Blood glucose level (OGTT) (db/db mice [4]; 60 min after glucose): 343 ± 12 mg/dL | Blood glucose level (OGTT) (db/db mice [4]; 90 min after glucose): 246 ± 26 mg/dL | Blood glucose level (OGTT) (db/db mice [4]; 120 min after glucose): 208 ± 11 mg/dL | Blood glucose level (OGTT) (db/db mice [4]; 240 min after glucose): 174 ± 22 mg/dL | Blood glucose level (OGTT) (db/db mice [4]; −30 min (before administration)): 265 ± 11 mg/dL | ALT (db/db mice [5]): 72.1 ± 4.5 U/L | AST (db/db mice [5]): 116.5 ± 4.6 U/L | HDL (db/db mice [5]): 88.2 ± 4.2 mg/dL | HbA1c (db/db mice [5]): 6.8 ± 0.2 % | LDL (db/db mice [5]): 25.9 ± 2.7 mg/dL | TCHO (db/db mice [5]): 116.7 ± 3.2 mg/dL
